Measured values as given in US7462600B2, “Macrolides” (Pfizer Inc, priority 2004, dated 2008).
Converted amounts (≈) assume the structure as drawn.

Assays:
Type in all cases: cell-based
[1] = tested on: Streptococcus pyogenes 1079; assay: MIC, microtiter broth dilution (NCCLS M100-S14), S. pyogenes 1079 (ermB); settings: Streptococcus pyogenes 1079
Summary of the method: (§1)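 NCCLS M100-S14 rules govern how the microdilution MICs are interpreted. Each compound starts as a 40 mg/ml solution in DMSO before dilution.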

[2] = tested on: Haemophilus influenzae 1218; assay: MIC, microtiter broth dilution (NCCLS M100-S14), H. influenzae 1218 (susceptible); settings: Haemophilus influenzae 1218
Summary of the method: as §1

[3] = tested on: Streptococcus pneumoniae 1016; assay: MIC, microtiter broth dilution (NCCLS M100-S14), S. pneumoniae 1016 (susceptible); settings: Streptococcus pneumoniae 1016
Summary of the method: as §1

[4] = tested on: Streptococcus pneumoniae 1175; settings: Streptococcus pneumoniae 1175; microtiter broth dilution
Summary of the method: as §1

[5] = tested on: Streptococcus pneumoniae 1095; settings: Streptococcus pneumoniae 1095; microtiter broth dilution
Summary of the method: as §1

SMILES	MIC S. pyogenes 1079 [1]	MIC H. influenzae 1218 [2]	MIC S. pneumo. 1016 [3]	MIC S. pneumo. 1175 [4]	MIC S. pneumo. 1095 [5]
CCC1OC(=O)C(C)C(=O)C(C)C(OC2OC(C)CC(N(C)C)C2O)C(C)(OC)CC(C)C(=O)C(C)C2N(C3CN(S(=O)(=O)c4cccc(-c5csnn5)c4)C3)C(=O)OC12C (stereo not drawn) [Example 3.63, 3-descladinosy-11,12-dideoxy-6-O-methyl-3-oxo-12,11-(oxycarbonyl-(1-(3-(1,2,3-thiadiazol-4-yl)benzenesulfonyl)-azetidin-3-yl)-imino)-erythromycin A]	0.25 µg/mL (≈ 0.28 µM)	<0.06 µg/mL	<0.06 µg/mL	<0.06 µg/mL	<0.06 µg/mL
CCC1OC(=O)C(C)C(=O)C(C)C(OC2OC(C)CC(N(C)C)C2O)C(C)(OC)CC(C)C(=O)C(C)C2N(C3CN(S(=O)(=O)c4ccc(-n5ccnc5)c(C#N)c4)C3)C(=O)OC12C (stereo not drawn) [Example 3.64]	32 µg/mL (≈ 35.6 µM)	0.5 µg/mL (≈ 0.556 µM)	<0.06 µg/mL	<0.06 µg/mL	<0.06 µg/mL
CCC1OC(=O)C(C)C(=O)C(C)C(OC2OC(C)CC(N(C)C)C2O)C(C)(OC)CC(C)C(=O)C(C)C2N(C3CN(S(=O)(=O)c4cccc(-c5ncco5)c4)C3)C(=O)OC12C (stereo not drawn) [Example 3.65, 3-descladinosyl-11,12-dideoxy-6-O-methyl-3-oxo-12,11-(oxycarbonyl-(1-(3-(oxazol-2-yl)benzenesulfonyl)-azetidin-3-yl)-imino)-erythromycin A]	1 µg/mL (≈ 1.14 µM)	0.12 µg/mL (≈ 0.137 µM)	<0.06 µg/mL	<0.06 µg/mL	<0.06 µg/mL
CCC1OC(=O)C(C)C(=O)C(C)C(OC2OC(C)CC(N(C)C)C2O)C(C)(OC)CC(C)C(=O)C(C)C2N(C3CN(S(=O)(=O)c4cccc(-c5cccnn5)c4)C3)C(=O)OC12C (stereo not drawn) [Example 3.72, 3-descladinosyl-11,12-dideoxy-4-O-methyl-3-oxo-12,11-(oxycarbonyl-(1-(3-(pyridazin-3-yl)benzenesulfonyl)-azetidin-3-yl)-imino)erythromycin A]	1 µg/mL (≈ 1.13 µM)	1 µg/mL (≈ 1.13 µM)	<0.06 µg/mL	<0.06 µg/mL	<0.06 µg/mL
CCC1OC(=O)C(C)C(=O)C(C)C(OC2OC(C)CC(N(C)C)C2O)C(C)(OC)CC(C)C(=O)C(C)C2N(C3CN(S(=O)(=O)c4cncc(-c5cnco5)c4)C3)C(=O)OC12C (stereo not drawn) [Example 3.75]	16 µg/mL (≈ 18.3 µM)	1 µg/mL (≈ 1.14 µM)	<0.06 µg/mL	<0.06 µg/mL	<0.06 µg/mL
CCC1OC(=O)C(C)C(=O)C(C)C(OC2OC(C)CC(N(C)C)C2O)C(C)(OC)CC(C)C(=O)C(C)C2N(C3CN(S(=O)(=O)c4ccc(-c5nncs5)cc4)C3)C(=O)OC12C (stereo not drawn) [Example 3.76, 3-descladinosyl-11,12-dideoxy-6-O-methyl-3-oxo-12,11-(oxycarbonyl-(1-(4-(1,3,4-thiadiazol-2-yl)benzenesulfonyl)-azetidin-3-yl)-imino)-erythromycin A]	0.12 µg/mL (≈ 0.135 µM)	0.5 µg/mL (≈ 0.56 µM)	<0.06 µg/mL	<0.06 µg/mL	<0.06 µg/mL
CCC1OC(=O)C(C)C(=O)C(C)C(OC2OC(C)CC(N(C)C)C2O)C(C)(OC)CC(C)C(=O)C(C)C2N(C3CN(S(=O)(=O)c4ccc(F)c(C#N)c4)C3)C(=O)OC12C (stereo not drawn) [Example 3.77, 3-descladinosyl-11,12-dideoxy-6-O-methyl-3-oxo-12,11-(oxycarbonyl-(1-(3-cyano-4-fluorobenzenesulfonyl)-azetidin-3-yl)-imino)-erythromycin A]	8 µg/mL (≈ 9.4 µM)	1 µg/mL (≈ 1.18 µM)	<0.06 µg/mL	<0.06 µg/mL	<0.06 µg/mL
CCC1OC(=O)C(C)C(=O)C(C)C(OC2OC(C)CC(N(C)C)C2O)C(C)(OC)CC(C)C(=O)C(C)C2N(C3CN(S(=O)(=O)c4ccc(-c5ccc(Cl)nn5)cc4)C3)C(=O)OC12C (stereo not drawn) [Example 3.78]	64 µg/mL (≈ 69.5 µM)	4 µg/mL (≈ 4.35 µM)	<0.06 µg/mL	<0.06 µg/mL	<0.06 µg/mL
CCC1OC(=O)C(C)C(=O)C(C)C(OC2OC(C)CC(N(C)C)C2O)C(C)(OC)CC(C)C(=O)C(C)C2N(C3CN(S(=O)(=O)c4ccc5ncsc5c4)C3)C(=O)OC12C (stereo not drawn) [Example 3.79]	1 µg/mL (≈ 1.16 µM)	0.25 µg/mL (≈ 0.289 µM)	<0.06 µg/mL	<0.06 µg/mL	<0.06 µg/mL
CCC1OC(=O)C(C)C(=O)C(C)C(OC2OC(C)CC(N(C)C)C2O)C(C)(OC)CC(C)C(=O)C(C)C2N(C3CN(S(=O)(=O)c4cncc(-n5cccn5)c4)C3)C(=O)OC12C (stereo not drawn) [Example 3.80, 3-descladinosyl-11,12-dideoxy-6-O-methyl-3-oxo-12,11-(oxycarbonyl-(1-(5-(1H-pyrazol-1-yl)pyridine-3-sulfonyl)-azetidin-3-yl)-imino)erythromycin A]	4 µg/mL (≈ 4.57 µM)	>64.00 µg/mL	<0.06 µg/mL	<0.06 µg/mL	<0.06 µg/mL
CCC1OC(=O)C(C)C(=O)C(C)C(OC2OC(C)CC(N(C)C)C2O)C(C)(OC)CC(C)C(=O)C(C)C2N(C3CN(S(=O)(=O)c4ccc(-n5ccnc5)c(F)c4)C3)C(=O)OC12C (stereo not drawn) [Example 3.81, 3-descladinosyl-11,12-dideoxy-4-O-methyl-3-oxo-12,11-(oxycarbonyl-(1-(3-fluoro-4-(1H-imidazol-1-yl)benzenesulfonyl)-azetidin-3-yl)-imino)-erythromycin A]	4 µg/mL (≈ 4.48 µM)	1 µg/mL (≈ 1.12 µM)	<0.06 µg/mL	<0.06 µg/mL	<0.06 µg/mL
CCC1OC(=O)C(C)C(=O)C(C)C(OC2OC(C)CC(N(C)C)C2O)C(C)(OC)CC(C)C(=O)C(C)C2N(C3CN(S(=O)(=O)c4ccc(-n5ccnc5)cc4)C3)C(=O)OC12C (stereo not drawn) [Example 3.82, 3-descladinosyl-11,12-dideoxy-6-O-methyl-3-oxo-12,11-(oxycarbonyl-(1-(4-(1H-imidazol-1-yl)benzenesulfonyl)-azetidin-3-yl)-imino)erythromycin A]	2 µg/mL (≈ 2.29 µM)	0.25 µg/mL (≈ 0.286 µM)	<0.06 µg/mL	<0.06 µg/mL	<0.06 µg/mL
CCC1OC(=O)C(C)C(=O)C(C)C(OC2OC(C)CC(N(C)C)C2O)C(C)(OC)CC(C)C(=O)C(C)C2N(C3CN(S(=O)(=O)c4ccc5c(c4)CCC5)C3)C(=O)OC12C (stereo not drawn) [Example 3.83]	32 µg/mL (≈ 37.7 µM)	1 µg/mL (≈ 1.18 µM)	<0.06 µg/mL	<0.06 µg/mL	<0.06 µg/mL
CCC1OC(=O)C(C)C(=O)C(C)C(OC2OC(C)CC(N(C)C)C2O)C(C)(OC)CC(C)C(=O)C(C)C2N(C3CN(S(=O)(=O)c4ccc(-c5nnn[nH]5)cc4)C3)C(=O)OC12C (stereo not drawn) [Example 3.84, 4-(1H-tetrazol-5-yl)benzenesulfonyl]	>64.00 µg/mL	32 µg/mL (≈ 36.5 µM)	1 µg/mL (≈ 1.14 µM)	16 µg/mL (≈ 18.3 µM)	>64.00 µg/mL
CCC1OC(=O)C(C)C(=O)C(C)C(OC2OC(C)CC(N(C)C)C2O)C(C)(OC)CC(C)C(=O)C(C)C2N(C3CN(S(=O)(=O)c4ccc5cn[nH]c5c4)C3)C(=O)OC12C (stereo not drawn) [Example 3.85, 3-descladinosyl-11,12-dideoxy-6-O-methyl-3-oxo-12,11-(oxycarbonyl-(1-(1H-indazole-6-sulfonyl)-azetidin-3-yl)-imino)-erythromycin A]	1 µg/mL (≈ 1.18 µM)	0.25 µg/mL (≈ 0.295 µM)	<0.06 µg/mL	<0.06 µg/mL	<0.06 µg/mL
CCC1OC(=O)C(C)C(=O)C(C)C(OC2OC(C)CC(N(C)C)C2O)C(C)(OC)CC(C)C(=O)C(C)C2N(C3CN(S(=O)(=O)c4ccc(-n5cccn5)c(F)c4)C3)C(=O)OC12C (stereo not drawn) [Example 3.86, 3-descladinosyl-11,12-dideoxy-6-O-methyl-3-oxo-12,11-(oxycarbonyl-(1-(3-fluoro-4-(1H-pyrazol-1-yl)benzenesulfonyl)-azetidin-3-yl)-imino)-erythromycin A]	1 µg/mL (≈ 1.12 µM)	1 µg/mL (≈ 1.12 µM)	<0.06 µg/mL	<0.06 µg/mL	<0.06 µg/mL
CCC1OC(=O)C(C)C(=O)C(C)C(OC2OC(C)CC(N(C)C)C2O)C(C)(OC)CC(C)C(=O)C(C)C2N(C3CN(S(=O)(=O)c4ccc5[nH]ncc5c4)C3)C(=O)OC12C (stereo not drawn) [Example 3.87, 3-descladinosyl-11,12-dideoxy-6-O-methyl-3-oxo-12,11-(oxycarbonyl-(1-(1H-indazole-5-sulfonyl)-azetidin-3-yl)-imino)-erythromycin A]	0.19 µg/mL (≈ 0.224 µM)	0.19 µg/mL (≈ 0.224 µM)	<0.06 µg/mL	<0.06 µg/mL	<0.06 µg/mL
CCC1OC(=O)C(C)C(=O)C(C)C(OC2OC(C)CC(N(C)C)C2O)C(C)(OC)CC(C)C(=O)C(C)C2N(C3CN(S(=O)(=O)c4ccc(F)c(-c5cnco5)c4)C3)C(=O)OC12C (stereo not drawn) [Example 3.88, 3-descladinosyl-11,12-dideoxy-6-O-methyl-3-oxo-12,11-(oxycarbonyl-(1-(4-fluoro-3-(oxazol-5-yl)benzenesulfonyl)-azetidin-3-yl)-imino)-erythromycin A]	8 µg/mL (≈ 8.96 µM)	2 µg/mL (≈ 2.24 µM)	<0.06 µg/mL	<0.06 µg/mL	<0.06 µg/mL
